Measured values published in article PMC9176816, “A rapid and sensitive assay for quantifying the activity of both aerobic and anaerobic ribonucleotide reductases acting upon any or all substrates” (PLoS ONE, 2022).
Blank lines part the entries; values can stand above or below the compound they belong to.

Legend:
[1] = molecular target: T1, E. coli class Ia RNR (EcRNR; NrdA/NrdB) (Escherichia coli, UniProt P00452); experiment: LC-MS/MS of dCDP, dUDP, dADP, dGDP formation; format: biochemical; conditions: four substrates (CDP 70, UDP 50, GDP 200, ADP 110 μM), 3 mM ATP, 20 μM dATP, remaining activity, specificity effector, pH 7.6, 37 °C
T1 construct: both subunits N-terminally His-tagged (tags kept), codon-optimized pET30(a), E. coli T7 Express; NrdA 85774 Da, NrdB 44528 Da; alpha2 and beta2 dimers; with Ribonucleoside-diphosphate reductase 1 subunit beta
T1 sequence (P00452 1-761): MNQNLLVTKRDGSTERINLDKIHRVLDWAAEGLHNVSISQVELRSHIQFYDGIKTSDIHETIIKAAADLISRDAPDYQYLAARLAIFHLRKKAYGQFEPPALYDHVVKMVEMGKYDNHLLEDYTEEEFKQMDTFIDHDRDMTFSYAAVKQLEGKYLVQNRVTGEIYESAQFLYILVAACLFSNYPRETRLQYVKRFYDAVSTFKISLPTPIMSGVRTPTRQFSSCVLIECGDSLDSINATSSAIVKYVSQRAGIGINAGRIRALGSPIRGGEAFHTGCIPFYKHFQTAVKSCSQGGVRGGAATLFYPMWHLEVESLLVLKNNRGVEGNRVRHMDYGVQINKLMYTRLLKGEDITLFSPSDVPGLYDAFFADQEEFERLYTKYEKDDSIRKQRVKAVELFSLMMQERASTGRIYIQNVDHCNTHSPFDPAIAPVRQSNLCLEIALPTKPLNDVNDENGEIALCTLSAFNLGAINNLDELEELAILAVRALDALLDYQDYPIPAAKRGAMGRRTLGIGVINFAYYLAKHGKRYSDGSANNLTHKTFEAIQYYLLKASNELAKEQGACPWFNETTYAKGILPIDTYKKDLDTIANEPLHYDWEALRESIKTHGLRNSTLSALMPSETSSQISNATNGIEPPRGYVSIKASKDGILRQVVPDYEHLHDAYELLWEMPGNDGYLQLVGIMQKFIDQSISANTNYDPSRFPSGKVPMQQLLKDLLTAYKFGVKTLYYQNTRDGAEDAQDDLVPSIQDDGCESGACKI
T1 sequence (P69924 2-376 partner): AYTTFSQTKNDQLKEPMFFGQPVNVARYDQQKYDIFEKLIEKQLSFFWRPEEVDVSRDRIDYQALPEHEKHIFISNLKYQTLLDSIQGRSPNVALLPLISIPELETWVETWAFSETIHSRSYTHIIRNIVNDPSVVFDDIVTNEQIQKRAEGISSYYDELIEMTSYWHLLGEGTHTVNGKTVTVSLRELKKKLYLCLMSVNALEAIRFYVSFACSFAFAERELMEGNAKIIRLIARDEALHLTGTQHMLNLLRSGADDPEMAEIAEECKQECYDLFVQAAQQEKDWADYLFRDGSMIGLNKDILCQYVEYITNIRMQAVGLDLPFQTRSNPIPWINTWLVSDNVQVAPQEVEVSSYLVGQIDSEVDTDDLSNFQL

[2] = molecular target: T1, E. coli class Ia RNR (EcRNR; NrdA/NrdB); experiment: LC-MS/MS of dCDP formation; format: biochemical; conditions: relative to 3 mM ATP; 1 mM CDP, dATP printed as 0.175 μM and 175 μM, NrdA 0.1 μM, NrdB 0.5 μM, Trx/TrxR/NADPH, Mg, pH 7.6, 37 °C; allosteric inhibitor

% of initial activity at 1 mM ([1]; 100 μM dGTP present): 27%
Structure (SMILES): Cc1cn([C@H]2C[C@H](O)[C@@H](COP(=O)(O)OP(=O)(O)OP(=O)(O)O)O2)c(=O)[nH]c1=O [TTP]

% inactivation [2]: 99%
Structure (SMILES): Nc1ncnc2c1ncn2[C@H]1C[C@H](O)[C@@H](COP(=O)(O)OP(=O)(O)OP(=O)(O)O)O1 [dATP]

% of initial activity at 1 mM ([1]; 250 μM TTP present): 50%
Structure (SMILES): Nc1nc2c(ncn2[C@H]2C[C@H](O)[C@@H](COP(=O)(O)OP(=O)(O)OP(=O)(O)O)O2)c(=O)[nH]1 [dGTP]
